How the values were obtained:
Test in all cases: Test B pre-/postemergence plant response
Format in all cases: in vivo
[1] = test system: Italian ryegrass (Lolium multiflorum); details: for Ryegrass, Italian plant response rating: 8 g ai/ha
Summary of the method: (§1)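 Seeds were sown and sprayed preemergence, while plants at 2 to 18 cm (1- to 4-leaf stage) got postemergence sprays. Compounds were formulated in a non-phytotoxic solvent mixture with surfactant. After 13 to 15 days in a greenhouse, injury was rated visually against untreated controls, 0 (no effect) to 100 (complete control).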

[2] = test system: Russian thistle (Salsola iberica); details: Preemergence
Summary of the method: as §1

[3] = test system: bermudagrass (Cynodon dactylon); details: for Bermudagrass plant response rating: 8 g ai/ha
Summary of the method: as §1

[4] = test system: corn (Zea mays); details: for Corn plant response rating: 8 g ai/ha
Summary of the method: as §1

[5] = test system: downy bromegrass (Bromus tectorum); details: for Bromegrass, Downy plant response rating: 8 g ai/ha
Summary of the method: as §1

[6] = test system: eastern black (E.B.) nightshade (Solanum ptycanthum); details: Preemergence
Summary of the method: as §1

[7] = test system: green foxtail (Setaria viridis); details: for Foxtail, Green plant response rating: 8 g ai/ha
Summary of the method: as §1

[8] = test system: kochia (Kochia scoparia); details: for Plant response rating, Kochia: Postemergence
Summary of the method: as §1

[9] = test system: morningglory (Ipomoea coccinea); details: for Morningglory plant response rating: 8 g ai/ha
Summary of the method: as §1

[10] = test system: pigweed (Amaranthus retroflexus); details: for Pigweed plant response rating: 8 g ai/ha
Summary of the method: as §1

[11] = test system: soybean (Glycine max)
Summary of the method: as §1

[12] = test system: surinam grass (Brachiaria decumbens); details: for Surinam Grass plant response rating: 8 g ai/ha
Summary of the method: as §1

[13] = test system: velvetleaf (Abutilon theophrasti); details: for Velvetleaf plant response rating: 8 g ai/ha
Summary of the method: as §1

[14] = test system: woolly cupgrass (Eriochloa villosa); details: for Cupgrass, Woolly plant response rating: 8 g ai/ha
Summary of the method: as §1

[15] = Postemergence, 16 g ai/ha, scale 0 to 100
[16] = Postemergence, 31 g ai/ha, scale 0 to 100, 0 no effect, 100 complete control
[17] = Postemergence, 62 g ai/ha, scale 0 to 100, 0 no effect, 100 complete control
[18] = Preemergence, 16 g ai/ha, scale 0 to 100 (0 no effect, 100 complete control)
[19] = Preemergence, 31 g ai/ha, 0 to 100 scale, 0 no effect, 100 complete control
[20] = Preemergence, 62 g ai/ha, scale 0 to 100
[21] = 16 g ai/ha, scale 0 to 100 (0 no effect, 100 complete control)
[22] = 31 g ai/ha, 0 to 100 scale, 0 no effect, 100 complete control
[23] = 8 g ai/ha, postemergence, 0-100 scale

Question: How did the “Ryegrass, Italian plant response rating” value ([1]; postemergence, 0-100 scale) turn out when `Cn1ncc(O)c(-c2nn(-c3ccc(Cl)cc3)cc2Cl)c1=O` [Compound 28] was run?
Answer: 40

Question: What about the “Plant response rating, Ryegrass, Italian” value [1, 15] of the same compound?
Answer: 55

Question: What about the “Plant response rating, Ryegrass, Italian” value [1, 16] of the same compound?
Answer: 55

Question: And the “Plant response rating, Ryegrass, Italian” value [1, 17]?
Answer: 98

Question: And the “Plant response rating, Ryegrass, Italian” value [1, 18]?
Answer: 80

Question: And the “Plant response rating, Ryegrass, Italian” value [1, 19]?
Answer: 100

Question: What about the “Plant response rating, Ryegrass, Italian” value [1, 20] of the same compound?
Answer: 100

Question: What about the “Ryegrass, Italian plant response rating” value ([1]; Preemergence, scale 0 to 100) of the same compound?
Answer: 0

Question: And the “Plant response rating, Russian Thistle” value [2, 21]?
Answer: 0

Question: And the “Plant response rating, Russian Thistle” value [2, 22]?
Answer: 0

Question: What about the “Plant response rating, Russian Thistle” value ([2]; 62 g ai/ha, scale 0 to 100) of the same compound?
Answer: 0

Question: And the “Russian Thistle plant response rating” value ([2]; 8 g ai/ha, scale 0 to 100)?
Answer: 0

Question: And the “Bermudagrass plant response rating” value ([3]; postemergence, 0-100 scale)?
Answer: 65

Question: What about the “Plant response rating, Bermudagrass” value [3, 15] of the same compound?
Answer: 80

Question: What about the “Plant response rating, Bermudagrass” value [3, 16] of the same compound?
Answer: 100

Question: What about the “Plant response rating, Bermudagrass” value [3, 17] of the same compound?
Answer: 100

Question: What about the “Bermudagrass plant response rating” value ([3]; Preemergence, scale 0 to 100 (0 no effect, 100 complete control)) of the same compound?
Answer: 0

Question: What about the “Plant response rating, Bermudagrass” value [3, 18] of the same compound?
Answer: 100

Question: What about the “Plant response rating, Bermudagrass” value [3, 19] of the same compound?
Answer: 100

Question: And the “Plant response rating, Bermudagrass” value [3, 20]?
Answer: 100

Question: What about the “Corn plant response rating” value ([4]; postemergence, 0-100 scale) of the same compound?
Answer: 0

Question: And the “Plant response rating, Corn” value [4, 15]?
Answer: 0

Question: And the “Plant response rating, Corn” value [4, 16]?
Answer: 0

Question: What about the “Plant response rating, Corn” value [4, 17] of the same compound?
Answer: 40

Question: What about the “Plant response rating, Corn” value [4, 18] of the same compound?
Answer: 0

Question: And the “Plant response rating, Corn” value [4, 19]?
Answer: 55

Question: What about the “Plant response rating, Corn” value [4, 20] of the same compound?
Answer: 90

Question: And the “Corn plant response rating” value ([4]; Preemergence, scale 0 to 100)?
Answer: 0

Question: And the “Bromegrass, Downy plant response rating” value ([5]; postemergence, 0-100 scale)?
Answer: 0

Question: What about the “Plant response rating, Bromegrass, Downy” value [5, 15] of the same compound?
Answer: 5

Question: What about the “Plant response rating, Bromegrass, Downy” value [5, 16] of the same compound?
Answer: 10

Question: What about the “Plant response rating, Bromegrass, Downy” value [5, 17] of the same compound?
Answer: 20

Question: What about the “Plant response rating, Bromegrass, Downy” value [5, 18] of the same compound?
Answer: 40

Question: What about the “Plant response rating, Bromegrass, Downy” value [5, 19] of the same compound?
Answer: 50

Question: And the “Plant response rating, Bromegrass, Downy” value [5, 20]?
Answer: 50

Question: What about the “Bromegrass, Downy plant response rating” value ([5]; Preemergence, scale 0 to 100) of the same compound?
Answer: 20

Question: What about the “Plant response rating, Nightshade, E. B.” value [6, 21] of the same compound?
Answer: 0

Question: And the “Plant response rating, Nightshade, E. B.” value [6, 22]?
Answer: 0

Question: What about the “Plant response rating, Nightshade, E. B.” value ([6]; 62 g ai/ha, scale 0 to 100) of the same compound?
Answer: 0

Question: What about the “Nightshade, E. B. plant response rating” value ([6]; 8 g ai/ha, scale 0 to 100) of the same compound?
Answer: 0

Question: And the “Foxtail, Green plant response rating” value ([7]; postemergence, 0-100 scale)?
Answer: 60

Question: What about the “Plant response rating, Foxtail, Green” value [7, 15] of the same compound?
Answer: 65

Question: What about the “Plant response rating, Foxtail, Green” value [7, 16] of the same compound?
Answer: 98

Question: What about the “Plant response rating, Foxtail, Green” value [7, 17] of the same compound?
Answer: 100

Question: What about the “Plant response rating, Foxtail, Green” value [7, 18] of the same compound?
Answer: 100

Question: And the “Plant response rating, Foxtail, Green” value [7, 19]?
Answer: 100

Question: What about the “Plant response rating, Foxtail, Green” value [7, 20] of the same compound?
Answer: 100

Question: What about the “Foxtail, Green plant response rating” value ([7]; Preemergence, scale 0 to 100) of the same compound?
Answer: 30

Question: And the “Kochia plant response rating” value [8, 23]?
Answer: 0

Question: What about the “Plant response rating, Kochia” value ([8]; 16 g ai/ha, scale 0 to 100) of the same compound?
Answer: 0

Question: And the “Plant response rating, Kochia” value ([8]; 31 g ai/ha, scale 0 to 100, 0 no effect, 100 complete control)?
Answer: 0

Question: What about the “Plant response rating, Kochia” value ([8]; 62 g ai/ha, scale 0 to 100, 0 no effect, 100 complete control) of the same compound?
Answer: 0

Question: And the “Morningglory plant response rating” value ([9]; postemergence, 0-100 scale)?
Answer: 0

Question: What about the “Plant response rating, Morningglory” value [9, 15] of the same compound?
Answer: 0

Question: And the “Plant response rating, Morningglory” value [9, 16]?
Answer: 0

Question: What about the “Plant response rating, Morningglory” value [9, 17] of the same compound?
Answer: 0

Question: What about the “Plant response rating, Morningglory” value [9, 18] of the same compound?
Answer: 0

Question: And the “Plant response rating, Morningglory” value [9, 19]?
Answer: 0

Question: And the “Plant response rating, Morningglory” value [9, 20]?
Answer: 0

Question: And the “Morningglory plant response rating” value ([9]; Preemergence, scale 0 to 100)?
Answer: 0

Question: What about the “Pigweed plant response rating” value ([10]; postemergence, 0-100 scale) of the same compound?
Answer: 0

Question: And the “Plant response rating, Pigweed” value [10, 15]?
Answer: 0

Question: What about the “Plant response rating, Pigweed” value [10, 16] of the same compound?
Answer: 0

Question: What about the “Plant response rating, Pigweed” value [10, 17] of the same compound?
Answer: 0

Question: What about the “Plant response rating, Pigweed” value [10, 18] of the same compound?
Answer: 0

Question: And the “Plant response rating, Pigweed” value [10, 19]?
Answer: 0

Question: What about the “Plant response rating, Pigweed” value [10, 20] of the same compound?
Answer: 0

Question: And the “Pigweed plant response rating” value ([10]; Preemergence, scale 0 to 100)?
Answer: 0

Question: And the “Soybean plant response rating” value [11, 23]?
Answer: 0

Question: And the “Plant response rating, Soybean” value [11, 15]?
Answer: 0

Question: And the “Plant response rating, Soybean” value [11, 17]?
Answer: 20

Question: What about the “Plant response rating, Soybean” value [11, 19] of the same compound?
Answer: 0

Question: What about the “Plant response rating, Soybean” value [11, 20] of the same compound?
Answer: 0

Question: And the “Surinam Grass plant response rating” value ([12]; postemergence, 0-100 scale)?
Answer: 65

Question: And the “Plant response rating, Surinam Grass” value [12, 15]?
Answer: 65

Question: What about the “Plant response rating, Surinam Grass” value [12, 17] of the same compound?
Answer: 90

Question: And the “Plant response rating, Surinam Grass” value [12, 18]?
Answer: 65

Question: What about the “Plant response rating, Surinam Grass” value [12, 19] of the same compound?
Answer: 98

Question: And the “Plant response rating, Surinam Grass” value [12, 20]?
Answer: 100

Question: And the “Surinam Grass plant response rating” value ([12]; Preemergence, scale 0 to 100)?
Answer: 0

Question: And the “Velvetleaf plant response rating” value ([13]; postemergence, 0-100 scale)?
Answer: 0

Question: What about the “Plant response rating, Velvetleaf” value [13, 15] of the same compound?
Answer: 0

Question: What about the “Plant response rating, Velvetleaf” value [13, 17] of the same compound?
Answer: 0

Question: And the “Plant response rating, Velvetleaf” value [13, 18]?
Answer: 0

Question: What about the “Plant response rating, Velvetleaf” value [13, 19] of the same compound?
Answer: 0

Question: What about the “Plant response rating, Velvetleaf” value [13, 20] of the same compound?
Answer: 0

Question: What about the “Velvetleaf plant response rating” value ([13]; Preemergence, scale 0 to 100) of the same compound?
Answer: 0

Question: What about the “Cupgrass, Woolly plant response rating” value ([14]; postemergence, 0-100 scale) of the same compound?
Answer: 50

Question: What about the “Plant response rating, Cupgrass, Woolly” value [14, 15] of the same compound?
Answer: 55

Question: What about the “Plant response rating, Cupgrass, Woolly” value [14, 16] of the same compound?
Answer: 95

Question: What about the “Plant response rating, Cupgrass, Woolly” value [14, 17] of the same compound?
Answer: 95

Question: And the “Plant response rating, Cupgrass, Woolly” value [14, 18]?
Answer: 30

Question: What about the “Plant response rating, Cupgrass, Woolly” value [14, 19] of the same compound?
Answer: 98

Question: And the “Plant response rating, Cupgrass, Woolly” value [14, 20]?
Answer: 98

Question: What about the “Cupgrass, Woolly plant response rating” value ([14]; Preemergence, scale 0 to 100) of the same compound?
Answer: 0
